Article PMC1977485, “The renal effects of N10-propargyl-5,8-dideazafolic acid (CB3717) and a non-nephrotoxic analogue ICI D1694, in mice” (British Journal of Cancer, 1991)
Values belong to the molecule of their own block, whether it stands above or below them.

Assays:
[1] = compared with CB3717; cited from earlier work
mice = test system: mice; set-up: method as in Jodrell et al., 1990; details: single bolus doses of 500 mg kg-1; ref Jodrell et al., 1990; cited from earlier work
C57/DBA2 mice [2] = experiment: Histological examination of the kidney (H&E); type: in vivo
From the text: Br .Cncr(91) 4 3-88?McilnPesLd,19 The renal effects of N1l-propargyl-5,8-dideazafolic acid (CB3717) and a non-nephrotoxic analogue ICI D1694, in mice D.I. Jodrell', D.R. Newelll,*, S.E. Morgan', S. Clinton2, J.P.M. Bensted2, L.R. Hughes3 & A.H. Calvertl,* 'Clinical Pharmacology Team, Drug Development Section, and 2Histopathology Section, Institute of Cancer Research, 15 Cotswold Road, Sutton, Surrey SM2 SNG; and 3ICI Pharmaceuticals, Mereside, Alderley Park, Macclesfield, Cheshire SKIO 4TG, UK. Summary N-(5-[N-(3,4-dihydro-2-methyl-4-oxoquinazolin-6-ylmethyl)-N-methylamino]-2-thenoyl)-L-glutamic acid (ICI D1694) is an analogue of the thymidylate synthase inhibitor, N'?-propargyl-5,8-dideazafolic acid (CB3717). […] Previous studies have shown ICI D1694 to be non-toxic to the kidney following a single administration but its renal effects after chronic administration are unknown. […] The '4C-inulin clearance assay developed was used to show a linear relationship between CB3717 dosage and renal damage (r=-0.989) following a single bolus dose (50-200mgkg-'), in mice. CB3717-induced renal damage is persistent (>6 weeks) and renal scarring was noted. […] However, the clinical use of CB3717 was limited by its nephrotoxicity, which was observ- ed in Phase I studies of both weekly (Vest et al., 1988) and 3-weekly administration schedules (Calvert et al., 1986; Sessa et al., 1988). Renal toxicity manifested primarily as a reduc- tion in glomerular filtration rate (GFR). However, tubular damage was also identified by the measurement of the urin- ary enzymes, N-acetyl glucosaminidase (NAG) and leucine aminopeptidase (LAP). […] In addition, urinary NAG and LAP levels were elevated in 50% of patients studied, although this elevation was not dose related (Calvert et al., 1986). CB3717-induced nephrotoxicity was thought to be due to the compound's relative insolubility at acid pH. […] To circumvent toxicity related to drug precipitation in the kidney, a series of more soluble analogues of CB3717 have been synthesised. […] One such analogue, N-(5-[N-(3,4-dihydro-2- methyl- 4 -oxoquinazolin- 6 -ylmethyl)- N -methylamino]-2-the- noyl) L-glutamic acid (ICI D1694, Figure lii) has been selected for preclinical development (Jackman et al., 1991). The plasma concentrations of urea and creatinine are com- monly measured to assess renal function during toxicological screening of new drugs. However, these parameters are rela- tively insensitive, because, in mice, a rise in plasma urea and creatinine concentration only occurs following the loss of 70-75% of functional renal mass (Everett & Harrison, 1983). Specificity is also poor because an elevation in plasma urea may be caused by 'pre-renal' (increased protein catabolism, gastric or intestinal bleeding and dehydration) or 'post-renal' (obstruction to renal outflow) causes, as well as parenchymal renal damage (Everett & Harrison, 1983). […] In man, the measurement of GFR has become accepted as a routine method for the assessment of renal function. The classical technique using inulin, which is solely cleared from the plasma by glomerular filtration, involves its constant infusion with simultaneous urine collec- tion (Jones, 1985). However, in mice, a constant infusion of inulin and simultaneous urine collection would require anaes- thesia or rigid restraint and complete emptying of the bladder before and at completion of the test (Ragan, 1989). Therefore a b Correspondence: D.I. Jodrell, Clinical Pharmacology, Drug Develop- ment Section, E Block, Institute of Cancer Research, 15 Cotswold Road, Sutton, Surrey SM2 5NG, UK. *Present address: Cancer Research Unit, The Medical School, Uni- versity of Newcastle upon Tyne, Framlington Place, Newcastle upon Tyne NE2 4HH, UK. Received 5 June 1991; and in revised form 19 July 1991. […]

[3] = set-up: method as in Newell et al., 1986; details: radiolabelled CB3717, mice, 23 days after administration; ref Newell et al., 1986; cited from earlier work
patients = details: cited from earlier work
C57/DBA2 mice [4] = experiment: Plasma urea concentration; type: in vivo; details: single dose 100 mg kg-1, at 9, 10, 11 and 14 weeks, small number of animals
From the text: Br .Cncr(91) 4 3-88?McilnPesLd,19 The renal effects of N1l-propargyl-5,8-dideazafolic acid (CB3717) and a non-nephrotoxic analogue ICI D1694, in mice D.I. Jodrell', D.R. Newelll,*, S.E. Morgan', S. Clinton2, J.P.M. Bensted2, L.R. Hughes3 & A.H. Calvertl,* 'Clinical Pharmacology Team, Drug Development Section, and 2Histopathology Section, Institute of Cancer Research, 15 Cotswold Road, Sutton, Surrey SM2 SNG; and 3ICI Pharmaceuticals, Mereside, Alderley Park, Macclesfield, Cheshire SKIO 4TG, UK. Summary N-(5-[N-(3,4-dihydro-2-methyl-4-oxoquinazolin-6-ylmethyl)-N-methylamino]-2-thenoyl)-L-glutamic acid (ICI D1694) is an analogue of the thymidylate synthase inhibitor, N'?-propargyl-5,8-dideazafolic acid (CB3717). […] Previous studies have shown ICI D1694 to be non-toxic to the kidney following a single administration but its renal effects after chronic administration are unknown. […] The '4C-inulin clearance assay developed was used to show a linear relationship between CB3717 dosage and renal damage (r=-0.989) following a single bolus dose (50-200mgkg-'), in mice. CB3717-induced renal damage is persistent (>6 weeks) and renal scarring was noted. […] The plasma concentrations of urea and creatinine are com- monly measured to assess renal function during toxicological screening of new drugs. […]

C57/DBA2 mice [5] = experiment: GFR by 14C-inulin clearance, single timed plasma sample, in drug treated mice; type: in vivo
From the text: Br .Cncr(91) 4 3-88?McilnPesLd,19 The renal effects of N1l-propargyl-5,8-dideazafolic acid (CB3717) and a non-nephrotoxic analogue ICI D1694, in mice D.I. Jodrell', D.R. Newelll,*, S.E. Morgan', S. Clinton2, J.P.M. Bensted2, L.R. Hughes3 & A.H. Calvertl,* 'Clinical Pharmacology Team, Drug Development Section, and 2Histopathology Section, Institute of Cancer Research, 15 Cotswold Road, Sutton, Surrey SM2 SNG; and 3ICI Pharmaceuticals, Mereside, Alderley Park, Macclesfield, Cheshire SKIO 4TG, UK. Summary N-(5-[N-(3,4-dihydro-2-methyl-4-oxoquinazolin-6-ylmethyl)-N-methylamino]-2-thenoyl)-L-glutamic acid (ICI D1694) is an analogue of the thymidylate synthase inhibitor, N'?-propargyl-5,8-dideazafolic acid (CB3717). […] Previous studies have shown ICI D1694 to be non-toxic to the kidney following a single administration but its renal effects after chronic administration are unknown. […] The '4C-inulin clearance assay developed was used to show a linear relationship between CB3717 dosage and renal damage (r=-0.989) following a single bolus dose (50-200mgkg-'), in mice. CB3717-induced renal damage is persistent (>6 weeks) and renal scarring was noted. […] However, the clinical use of CB3717 was limited by its nephrotoxicity, which was observ- ed in Phase I studies of both weekly (Vest et al., 1988) and 3-weekly administration schedules (Calvert et al., 1986; Sessa et al., 1988). Renal toxicity manifested primarily as a reduc- tion in glomerular filtration rate (GFR). However, tubular damage was also identified by the measurement of the urin- ary enzymes, N-acetyl glucosaminidase (NAG) and leucine aminopeptidase (LAP). […] In addition, urinary NAG and LAP levels were elevated in 50% of patients studied, although this elevation was not dose related (Calvert et al., 1986). CB3717-induced nephrotoxicity was thought to be due to the compound's relative insolubility at acid pH. […] The plasma concentrations of urea and creatinine are com- monly measured to assess renal function during toxicological screening of new drugs. […]

[6] = 100 mg kg-1 weekly for 6 weeks, 1 week after final dose

Structure (SMILES): Cc1nc2ccc(CN(C)c3ccc(C(=O)N[C@@H](CCC(=O)O)C(=O)O)s3)cc2c(=O)[nH]1 [ICI D1694, N-(5-[N-(3,4-dihydro-2-methyl-4-oxoquinazolin-6-ylmethyl)-N-methylamino]-2-thenoyl)-L-glutamic acid]
water solubility [1]: more water soluble | acute renal toxicity (mice): absence of acute renal toxicity | kidney histology (C57/DBA2 mice [2]; [6]): no histological evidence of renal damage | kidney histology (C57/DBA2 mice [2]; 250 mg kg-1 weekly for 6 weeks, 1 week after final dose): normal in 5/5 mice

plasma biochemistry (urea and creatinine concentrations) (C57/DBA2 mice [4]): normal | reduction in GFR (C57/DBA2 mice [5]; 200 mg kg-1 single ip bolus, 5 days after (Figure 4)): > 70% | GFR (C57/DBA2 mice [5]; single dose of 10 mg kg-1 (30 mg m-2), 5 days after): normal | kidney histology (C57/DBA2 mice [2]; single dose 10 mg kg-1, 5 days after): normal | kidney histology (C57/DBA2 mice [2]; single dose 50 mg kg-1, 5 days after): focal tubular dilatation | kidney histology (C57/DBA2 mice [2]; single dose 100 mg kg-1, 24 h after administration): tubular dilatation | kidney histology (C57/DBA2 mice [2]; single dose 100 mg kg-1, day 3): focal tubular dilatation | kidney histology (C57/DBA2 mice [2]; single dose 100 mg kg-1, day 20): glomerular atrophy | kidney histology (C57/DBA2 mice [2]; single dose 100 mg kg-1, six weeks (42 days)): deeply pitted scars
Structure (SMILES): C#CCN(Cc1ccc2nc(N)[nH]c(=O)c2c1)c1ccc(C(=O)N[C@@H](CCC(=O)O)C(=O)O)cc1 [CB3717, N10-propargyl-5,8-dideazafolic acid]
radioactivity in the kidneys [3]: still detectable | courses with reductions in GFR (creatinine clearance) of >20% (patients; 6/17 courses at 400 mg m2 despite alkalinisation of the urine, ref Sessa et al., 1988): 35% | lowest dose causing renal damage (reduction in GFR) (patients; bolus injection at weekly intervals, in man, ref Vest et al., 1988): 10 mg m2 | patients with elevated urinary NAG and LAP levels (patients; patients studied, not dose related, ref Calvert et al., 1986): 50% | patients with >20% reduction in GFR (patients; seven of 12 patients receiving more than 400 mg m2, ref Calvert et al., 1986): 58% | persistence of renal damage (C57/DBA2 mice [5]; single dose 100 mg kg-1): > 6 weeks | kidney histology (C57/DBA2 mice [2]; [6]): Cortical scarring with tubular dilatation and amorphous casts | kidney histology (C57/DBA2 mice [2]; single dose 100 mg kg-1, 14 weeks, small number of animals): cortical scarring and the presence of amorphous casts | kidney histology (C57/DBA2 mice [2]; single dose 100 mg kg-1, days 5 and 7): Tubular dilatation persisted through days 5 and 7 with increased tubular mitotic activity
